Read-outs that look alike come from different tables or passages of the source.
What was measured:
human 5HT1A receptor [1] = target: T1, human 5HT1A receptor (Homo sapiens, UniProt P08908); test: 5-HT1A Receptor Binding Assay (displacement of [^3 H] 8-OH-DPAT binding in CHO cells stably transfected with human 5HT1A receptor)
T1 construct: expressed in transfected cells; host or cells: CHO cells, stably transfected
T1 sequence (P08908 1-422): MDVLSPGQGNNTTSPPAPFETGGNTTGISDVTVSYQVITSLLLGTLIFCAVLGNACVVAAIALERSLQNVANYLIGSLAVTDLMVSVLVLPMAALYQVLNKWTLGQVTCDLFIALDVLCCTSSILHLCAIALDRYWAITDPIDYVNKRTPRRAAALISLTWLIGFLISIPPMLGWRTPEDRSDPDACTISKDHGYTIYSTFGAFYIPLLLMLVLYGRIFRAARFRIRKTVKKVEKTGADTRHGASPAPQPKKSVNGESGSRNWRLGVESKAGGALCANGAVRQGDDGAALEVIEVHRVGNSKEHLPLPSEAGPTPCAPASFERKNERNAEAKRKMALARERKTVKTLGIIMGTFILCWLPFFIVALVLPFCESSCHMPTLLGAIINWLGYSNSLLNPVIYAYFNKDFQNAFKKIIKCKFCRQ
Experimental: High affinity for the serotonin 5-HT1A receptor was established by testing a compound's ability to displace [^3 H] 8-OH-DPAT binding in CHO cells stably transfected with human 5HT1A receptor. Stably transfected CHO cells are grown in DMEM containing 10% heat inactivated FBS and non-essential amino acids. Cells are scraped off the plate, transferred to centrifuge tubes, and washed twice by centrifugation (2000 rpm for 10 min., 4° C.) in buffer (50 mM Tris pH 7.5). The resulting pellets are aliquoted and placed at -80° C. On the day of assay, the cells are thawed on ice and resuspended in buffer. The binding assay is performed in a 96 well microtiter plate in a total volume of 250 μL. Non-specific binding is determined in the presence of […] 5-HT, final ligand concentration is 1.5 nM. Following a 30 minute incubation at room temperature, the reaction is terminated by the addition of ice cold buffer and rapid filtration through a GF/B filter presoaked for 30 minutes in 0.5% PEI. Compounds are initially tested in a single point assay to determine percent inhibition at […], and Ki values are determined for the active compounds.

human 5HT1A receptor [2] = target: T1, human 5HT1A receptor; test: 5-HT1A Receptor Intrinsic Activity Assay, agonist activity (cAMP in forskolin-treated CHO cells stably transfected with the human 5-HT1A receptor); format: cell-based; details: read-out: cAMP Emax
Experimental: (§1) The intrinsic activity of compounds of the present invention was established by testing the claimed compounds ability to reverse the stimulation of cyclic adenosinemonophosphate (cAMP) in CHO cells stably transfected with the human 5-HT1A receptor.
(§2) Stably transfected CHO cells were grown in DMEM containing 10% heat inactivated FBS and non-essential amino acids. The cells are plated at a density of […] cells per well in a 24 well plate and incubated for 2 days in a CO2 incubator. On the second day, the media is replaced with 0.5 mL treatment buffer (DMEM +25 mM HEPES, 5 mM theophylline, 10 μM pargyline) and incubated for 10 minutes at 37° C. Wells are treated with forskolin (1 μM final concentration) followed immediately by the test compound (0.1 and 1 μM for initial screen) and incubated for an additional 10 minutes at 37° C. The reaction is terminated by removal of the media and addition of 0.5 mL ice cold assay buffer (supplied in the RIA kit). Plates are stored at -20° C. prior to assessment of cAMP formation by RIA. EC50 values are determined for the active test compounds. Compounds shown to have no agonist activities (Emax=0%) are further analyzed for their ability to reverse agonist induced activity. In separate experiments, 6 concentrations of antagonist are preincubated for 20 minutes prior to the addition of agonist and forskolin. Cells are harvested as described above. The cAMP kit is supplied by Amershan and the RIA is performed as per kit instructions, and calculations of IC50 performed by GraphPad Prism.

human 5HT1A receptor [3] = target: T1, human 5HT1A receptor; test: 5-HT1A Receptor Intrinsic Activity Assay, ability to reverse agonist induced activity (cAMP, CHO cells stably transfected with the human 5-HT1A receptor); format: cell-based; details: reversal of agonist induced activity; 6 concentrations of antagonist preincubated 20 minutes prior to agonist and forskolin
Experimental: as §1
as §2, with “The cAMP kit is supplied by Amershan and the RIA is performed as per kit instructions, and calculations of IC50 performed by GraphPad Prism.” left out

[4] = [^3 H] 8-OH-DPAT 1.5 nM, CHO cells, 30 minute incubation at room temperature, read-out: 5-HT1A binding Ki
[5] = agonist activity, forskolin 1 μM, CHO cells, 10 minutes at 37° C.

Row | Ki (human 5HT1A receptor [1]; [4]) | Emax (human 5HT1A receptor [2]; [5]) | IC50 (human 5HT1A receptor [3]) | Compound | Ki (human 5HT1A receptor [1]) | Emax (human 5HT1A receptor [2]; CHO)
1 | 3.5 nM | 0% | 46.9 nM | COc1ccc(F)cc1C1CCN(C[C@@H](Cc2ccccc2)N(C)C(=O)NC2CCCCC2)CC1 [Example 1, 1-{(1R)-1-Benzyl-2-[4-(5-fluoro-2-methoxyphenyl)-piperidin-1-yl]-ethly}-1-3-cyclohexyl-1-methyl-urea] |  | 
2 |  |  |  | COc1ccc(F)cc1C1=CCN(C[C@@H](Cc2ccccc2)N(C)C(=O)N2CCOCC2)CC1 [Example 2, Morpholine-4-carboxylic acid {(1R)-1-benzyl-2-[4-(5-fluoro-2-methoxy-phenyl)-1,2,5,6-tetrahydro-4H-pyridin-1-yl]-ethyl}-methyl-amide] | 26.6 nM | 0%
3 | 3.5 nM | 0% | 12.6 nM | COc1ccc(F)cc1C1=CCN(C[C@@H](Cc2ccccc2)N(C)C(=O)NC2CCCCC2)CC1 [Example 3, 1-{(1R)-1-Benzyl-2-[4-(5-fluoro-2-methoxy-phenyl)-1,2,5,6-tetrahydro-4H-pyridin-1-yl]-ethyl-}-3-cyclohexyl-1-methyl-urea] |  | 

From US6239126A, “Arylpiperidine and aryl-1,2,5,6-tetra-hydropyridine urea derivatives” (American Home Products Corporation, priority 1999, dated 2001)
